Reference: patent US5939527A, “Tetrapeptides as antitumor agents” (BASF Aktiengesellschaft, priority 1996, dated 1999)

Columns and labels:
[1] = system: HT-29 colon carcinoma cells; type: cell-based; details: HT-29 cells, 48 hours incubation, MTT; read-out: IC50 (concentration giving a T/C of 50% growth inhibition)
[2] = system: Human breast tumors (MX-1); assay: In vivo activity, MX-1 human breast tumor xenograft in athymic nude mice; details: subcutaneous injection, 10, 20 or 30 mg/kg, three doses per week, days 5-23
Protocol: Compounds of this invention were further tested in pre-clinical assays for in vivo activity which is indicative of clinical utility. Such assays were conducted with nude mice into which tumor tissue, preferably of human origin, had been transplanted (xenografted), as is well known in this field. Test compounds were evaluated for anti-tumor efficacy following administration to the xenograft-bearing mice.
Human breast tumors (MX-1) which had been grown in athymic nude mice were transplanted into new recipient mice, using tumor fragments which were about 50 mg in size. The day of transplantation was designated as day 0. The mice were divided into four groups of 5-10 mice each. An untreated group served as the control. Three groups were treated by subcutaneous injection of compound 1, with each group receiving three doses per week of 30, 20 or 10 mg/kg body weight. Doses were administered on days 5, 7, 9, 12, 14, 16, 19, 21 and 23 post post-implantation.
Tumor diameters and body weights were measured twice weekly. Tumor volumes were calculated using the diameters measured with Vernier calipers, and the formula
(length×width^2)/2=mm^3 of tumor volume
Mean tumor volumes are calculated for each treatment group, and T/C values determined for each group relative to the untreated control tumors.

[3] = system: four different human lymphoma cell lines; details: cited from earlier work
[4] = synthetic Dolastatin 10; cited from earlier work
[5] = system: P388 lymphocytic leukemia (PS system) cell line; details: cited from earlier work

Row | Molecule | IC50 [1] | inhibition of tumor growth (tumor volume versus post-implantation time) [2] | inhibition of growth of human lymphoma cell lines [3] | solubility in aqueous systems [4] | growth inhibition of P388 cell line [5]
1 | CO[C@H](CC(=O)N1CCC[C@H]1C(=O)Nc1nccs1)[C@H](C(C)C)N(C)C(=O)[C@@H](NC(=O)[C@H](C(C)C)N(C)C)C(C)C [Compound 1, (3R,4S)-4-[N-(N,N-dimethyl-L-valyl-L-valyl)-N-methylamino]-3-methoxy-5-methyl-hexanoyl prolyl-thiazolyl(2)-amide] | 60 nM | significant dose-dependent inhibition of tumor growth | – | – | –
2 | Dolastatin 10 | – | – | effectively inhibit | poor solubility | –
3 | Dolastatin 15 | – | – | effectively inhibit | – | inhibits the growth
